Results published in patent US20230201214A1, “LPXC INHIBITOR, FORMULATIONS, AND USES THEREOF” (priority 2020, published 2023).
In brackets after ≈: the same amount, converted by molar mass. Values belong to the compound of their own block, whether it stands above or below them.

Columns and labels:
[1] = Oral solution formulation excipient screening (solubility estimated by HPLC); format: physicochemical
From the text: The solubility of Compound A was estimated by HPLC in multiple potential excipients for a solution formulation (Table 4).

[2] = system: N. cyriacigeorgica complex NEQAS 3295; assay: Bacterial susceptibility testing (MIC, broth microdilution); format: cell-based; conditions: Nocardia cyriacigeorgica
Procedure: (§1) Minimal inhibitory concentrations (MIC) against a variety of gram-negative and gram-positive bacterial strains were determined by the broth microdilution method in accordance with the Clinical and Laboratory Standards Institute (CLSI) guidelines. In brief, organism suspensions were adjusted to a 0.5 McFarland standard to yield a final inoculum between 3×10^5 and 7×10^5 colony-forming units (CFU)/mL. Drug dilutions and inocula were made in sterile, cation adjusted Mueller-Hinton Broth (Beckton Dickinson). An inoculum volume of 100 μL was added to wells containing 100 μL. of broth with 2-fold serial dilutions of drug. All inoculated microdilution trays were incubated in ambient air at 35° C. for 18-24 h. Following incubation, the lowest concentration of the drug that prevented visible growth (OD600 nm<0.05) was recorded as the MIC. Performance of the assay was monitored by the use of laboratory quality-control strains and levofloxacin, a compound with a defined MIC spectrum, in accordance with CLSI guidelines.

[3] = system: gram-negative and gram-positive bacterial strains; assay: Bacterial susceptibility testing, whole panel; format: cell-based
Procedure: as §1

Structure (SMILES): N#CC1CN(C[C@@H](Cc2ncnc(O)c2O)c2ccc(C#Cc3ccc(CN4CCOCC4)cc3)cc2)C1 [Compound A, (S)-1-(3-(5,6-dihydroxypyrimidin-4-yl)-2-(4-((4-(morpholinomethyl)phenyl)ethynyl)phenyl)propyl)azetidine-3-carbonitrile]
solubility ([1]; Capmul MCM, oil or lipid): 330 µg/mL (≈ 648 µM) | solubility ([1]; Cremophor RH40, aqueous with cosolvent or surfactant or cyclodextrin): 900 µg/mL (≈ 1770 µM) | solubility ([1]; HCl solution (pH 0.5), pH 0.5, simulated gastric fluid): ≥ 45000 µg/mL | solubility ([1]; Labrafil M 1944, oil or lipid): 120 µg/mL (≈ 235 µM) | solubility ([1]; Lactic acid, organic solvent or mixture): ≥ 20000 µg/mL | solubility ([1]; Maisine CC, oil or lipid): 130 µg/mL (≈ 255 µM) | solubility ([1]; Oleic acid, oil or lipid): 480 µg/mL (≈ 942 µM) | solubility ([1]; Peppermint oil, oil or lipid): 50 µg/mL (≈ 98.1 µM) | solubility ([1]; Polysorbate 20, aqueous with cosolvent or surfactant or cyclodextrin): 850 µg/mL (≈ 1670 µM) | solubility ([1]; Polysorbate 80, aqueous with cosolvent or surfactant or cyclodextrin): 620 µg/mL (≈ 1220 µM) | solubility ([1]; Propylene glycol (pH 0.5), pH 0.5, organic solvent or mixture): ≥ 45000 µg/mL | solubility ([1]; Propylene glycol, organic solvent or mixture): < 10000 µg/mL | solubility ([1]; SBEβCD (30% w/v), pH 0.5, pH 0.5, aqueous with cosolvent or surfactant or cyclodextrin): ≥ 45000 µg/mL | solubility ([1]; SBEβCD (30% w/v), pH 3, pH 3, aqueous with cosolvent or surfactant or cyclodextrin): < 10000 µg/mL | solubility ([1]; Solutol HS 15, aqueous with cosolvent or surfactant or cyclodextrin): 630 µg/mL (≈ 1240 µM) | solubility ([1]; Soybean oil, oil or lipid): 20 µg/mL (≈ 39.2 µM) | solubility ([1]; Transcutol (pH 0.5), pH 0.5, organic solvent or mixture): ≥ 10000 µg/mL | solubility ([1]; Transcutol, organic solvent or mixture): < 10000 µg/mL | solubility ([1]; Vitamin E TPGS, aqueous with cosolvent or surfactant or cyclodextrin): < 10000 µg/mL | solubility ([1]; aqueous with cosolvent or surfactant or cyclodextrin, Gelucire 44/14 (surfactant)): < 10000 µg/mL | solubility in excipients, overall ([1]; most excipients, acidifying the excipients led to higher solubility): Low solubility | solubility ([1]; organic solvent or mixture, PEG400 (co-solvent)): < 10000 µg/mL | MIC [2]: > 64 µg/mL | selectivity for gram-negative bacteria over gram-positive bacteria ([3]; from MIC panel of Table 1): high selectivity

MIC [2]: 8 µg/mL (≈ 22.1 µM)
Structure (SMILES): C[C@H]1COc2c(N3CCN(C)CC3)c(F)cc3c(=O)c(C(=O)O)cn1c23 [Levofloxacin]

Structure (SMILES): C[C@@H](O)[C@H]1C(=O)N2C(C(=O)O)=C(S[C@@H]3CN[C@H](C(=O)N(C)C)C3)[C@H](C)[C@H]12 [Meropenem, reference compound]
MIC [2]: > 1 µg/mL | activity against gram-positive bacteria ([3]; various strains of gram-positive bacteria): do have activity
